The results in this text go back to patent US7407969B2, “Respiratory syncytial virus replication inhibitors” (Janssen Pharmaceutica, N.V., priority 1999, dated 2008).

In data set [1] the test system is Respiratory Syncytial Virus. In words: microbe, parasite or virus in culture. In kind it is cell-based. As to conditions: for SI: selectivity index = CC50 divided by IC50. How it is done: (§1) The percent protection against cytopathology caused by viruses (antiviral activity or IC50) achieved by tested compounds and their cytotoxicity (CC50) were both calculated from dose-response curves.
(§2) Automated tetrazolium-based […] assays were used for determination of IC50 and CC50 of test compounds. Flat-bottom, 96-well plastic microtiter trays were filled with 180 μl of Eagle's Basal Medium, supplemented with 5% FCS (0% for FLU) and 20 mM Herpes buffer. Subsequently, stock solutions (7.8×final test concentration) of compounds were added in 45 μl volumes to a series of triplicate wells so as to allow simultaneous evaluation of their effects on virus- and mock-infected cells. Five five-fold dilutions were made directly in the microtiter trays using a robot system. Untreated virus controls, and HeLa cell controls were included in each test. Approximately 100 TCID50 Respiratory Syncytial Virus was added to two of the three rows in a volume of 50 μl. The same volume of medium was added to the third row to measure the cytotoxicity of the compounds at the same concentrations as those used to measure the antiviral activity. After two hours of incubation, a suspension (4×10^5 cells/ml) of HeLa cells was added to all wells in a volume of 50 μl. The cultures were incubated at 37° C. in a 5% CO2 atmosphere. Seven days after infection the cytotoxicity and the antiviral activity was examined spectrophotometrically. To each well of the microtiter tray, 25 μl of a solution of MIT (3-(4,5-dimethylthiazol-2-yl)-2,5-diphenyltetrazolium bromide) was added. The trays were further incubated at 37° C. for 2 hours, after which the medium was removed from each cup. Solubilization of the formazan crystals was achieved by adding 100 μl 2-propanol. Complete dissolution of the formazan crystals were obtained after the trays have been placed on a plate shaker for 10 min. Finally, the absorbances were read in an eight-channel computer-controlled photometer (Multiskan MCC, Flow Laboratories) at two wavelengths (540 and 690 nm). The absorbance measured at 690 nm was automatically subtracted from the absorbance at 540 nm, so as to eliminate the effects of non-specific absorption.

Data set [2] can be described thus: Cytotoxicity (CC50) in mock-infected HeLa cells, tetrazolium (MTT) colorimetric assay. In kind it is cell-based. As to conditions: human. On the procedure: as §1
as §2, with “Complete dissolution of the formazan crystals were obtained after the trays have been placed on a plate shaker for 10 min.” left out

[3] abbreviates: human respiratory syncytial virus, HeLa, 168 h.

Read-outs that look alike come from different tables or passages of the source.

By melting point is commonly meant the temperature of the solid-liquid transition. As to `NCCN1CCC(Nc2nc3ccccc3n2Cc2ccnc3ccccc23)CC1`, the melting point is 196 °C.
Same read-out and setting: the figure for `CCOC(c1cccc2cccnc12)n1c(NC2CCN(C(CN)C(C)C)CC2)nc2ccccc21` (racemic) is 202 °C; for `CC(C)C(N)CN1CCC(Nc2nc3ccccc3n2CC2CCc3ccccc3N2)CC1.Cl.Cl.Cl.Cl.O` (racemic) (hydrate or solvate) it is 230 °C.
By IC50 is commonly meant the point on the concentration scale where inhibition reaches its midpoint. By CC50 is commonly meant the concentration that lowers cell viability or growth by half. The molecule `CC(C)C(N)CN1CCC(Nc2nc3ccccc3n2Cc2ccc3ccccc3n2)CC1` (racemic) [Compound 6, (±)-N-[1-(2-amino-3-methylbutyl)-4-piperidinyl]-1-(2-quinolinylmethyl)-1H-benzimidazol-2-amine] gave a melting point of 135 °C. In addition, in data set [1] (human respiratory syncytial virus, 168 h, antiviral activity against Respiratory Syncytial Virus, HeLa cells, 7 days after infection, MTT, read-out: IC50), the IC50 turned out to be 12.6 nM. For the same molecule, in data set [1], the SI was determined as 794. Moreover, in data set [2], the midpoint of cytotoxicity, the CC50 at 7 days, lay at 10000 nM.
As to `CCOCCOC(c1cccc2cccnc12)n1c(NC2CCN(CC(N)C(C)C)CC2)nc2ccccc21` (racemic) [Compound 31, (±)-N-[1-(2-amino-3-methylbutyl)-4-piperidinyl]-1-[(2-ethoxyethoxy)-8-quinolinyl-methyl]-1H-benzimidazol-2-amine], it took 0.8 nM to reach half-maximal inhibition in data set [1] (setting [3]) (IC50). The same molecule had an SI in data set [1] of 15849. The CC50 at 7 days in data set [2] is 12700 nM.
`CC(C)C(N)CN1CCC(Nc2nc3ccccc3n2C2CCCc3ccc(Br)nc32)CC1.Cl.Cl.Cl.O.O.O` (racemic) [Compound 56, (±)-N-[1-(2-amino-3-methylbutyl)-4-piperidinyl]-1-(2-bromo-5,6,7,8-tetrahydro-8-quinolinyl)-1H-benzimidazol-2-amine trihydrochloride trihydrate]: it took 1.6 nM to reach half-maximal inhibition in data set [1] (setting [3]) (IC50). This molecule also showed an SI in data set [1] of 7943. Also, the CC50 at 7 days in data set [2] (cytotoxicity in mock-infected HeLa cells, 7 days, MTT, read-out: CC50) was determined as 12700 nM.
Regarding “(±)-N-[1-(2-amino-3-methylbutyl)-4-piperidinyl]-3-(quinolinylmethyl)-3H-imidazo[4,5-b]pyridin-2-amine [Compound 42]”, the IC50 in data set [1] (antiviral activity against Respiratory Syncytial Virus, HeLa cells, 7 days after infection, MTT, read-out: IC50) was 0.4 nM. Also, the SI in data set [1] is reported as >25119.
